Test [1] relates to cultured neuronal cells. The experiment in a line: Detection of membrane perturbations, nanopatch-containing neuron cells. In kind it is cell-based, rat. As to conditions: 50 mM in medium; FIG. 7. As for the experimental part:
Cell cultures were prepared from the Hippocampi of one-day-old rat pups as follows. Tissue was treated for 30 min at 37° C. with 0.25% trypsin (type XI; Sigma), and then gently triturated and the dissociated cells were plated at a concentration of 2×10^5/ml onto poly-D-lysine ([…]; Sigma) and laminin ([…]; Collaborative Research)—coated glass coverslips. Cells were plated in Eagle's minimal essential medium (MEM) containing 10% heat-inactivated fetal bovine serum (HyClone), 2 mM glutamine, and 0.76% glucose. On the following day, the medium was replaced with fresh SF1C medium [Rayport, D. et al. (1992) J. Neurosci. 12, 4264-4280], including B-27 supplements (GIBCO). The cells were grown for up to 12 days in a humid incubator containing 5% CO2/95% air at 37° C. prior to use.
Cells were incubated with DMPE/DMPG/PDA-1:1:6 (mole ratio) vesicles in TG1 buffer (119 mM NaCl, 5 mM KCl, 30 mM Glucose, 32 mM Sucrose, 20 mM Hepes, pH=7.3) for 1 hour at room temperature. Following the fusion, vesicles were polymerized by UV irradiation at 254 nm for 10 seconds and the unbound vesicles were washed 3 times with TG1 buffer.
Fluorescent images of the cells were acquired using a Zeiss 200M microscope (Germany) fitted with a CY3 570-650 nm emission range filter (Chroma Technology Corp., Rockingham, Vt.) and CCD cooled camera (PCO). […]

For test [2], the system named is U937 cells. The experiment in a line: Detection of membrane perturbations by fluorescence microscopy, nanopatch-containing U937 cells. In kind it is cell-based, human. Here is the method:
U937 cells were grown and prepared as described in section 1.1 of Example 1, hereinabove. The precursors of the Lipid/PDA constructs (i.e. a mixture of 10,12-tricosadiynoic acid, PE and PG at a molar ratio of 8:1:1) were prepared and introduced into the cells in accordance with the methods described in sections 1.2 and 1.3 of Example 1.
Separate aliquots of cells containing the lipid/PDA constructs were then subjected to the membrane-perturbing treatments described below.
Transmission differential interference contrast (DIC) and fluorescence images of the cells were acquired on a laser scanning confocal microscope (Olympus IX70) with an PlApo 60× objective using oil (NA 1.4). Excitation was at 488 nm using argon laser source. Emitted light was collected through a LP 560 nm filter.

Test [3] has as its system Erythrocyte "ghosts". The test is described as follows: Detection of membrane perturbations, nanopatch-containing erythrocyte ghosts. Type of test: cell-based. The note with it: ghosts labeled with DMPC/PDA liposomes; FIG. 11. Here is the method: Erythrocyte “ghosts” (i.e. emptied cells) were labeled with DMPC/PDA liposomes, following which the nanopatch-containing cells were treated with the membrane active compound melittin.

The test system of test [4] is CHO cells. The test is described as follows: Detection of membrane perturbations, nanopatch-containing CHO cells. Type of test: cell-based. As to conditions: FIG. 10. As for the experimental part:
PDA nanopatch-containing CHO cells were prepared as described in Example 1, hereinabove, and treated with propranolol, a membrane-active pharmaceutical compound.

Each structure is given as a SMILES string.

Turning to `[Ca+2]` [calcium ions], in test [1], the “Fluorescent emission from the red phase of the polydiacetylene polymer” value is “white fluorescent light emitted by the cells”. In the case of `CCN(CC)CC(=O)Nc1c(C)cccc1C` [lidocaine], the “Fluorescent emission of the lipid/PDA constructs (membrane perturbation)” value in test [2] (5 μM, 25° C., 5 to 15 minutes, FIG. 5) is reported as “characteristic fluorescent emission”; in test [2] (1 mM, FIG. 8 panel B), “characteristic fluorescent emission associated with perturbation of the PDA construct is readily observed”. `CC[C@H](C)[C@H](NC(=O)CN)C(=O)NCC(=O)N[C@@H](C)C(=O)N[C@H](C(=O)N[C@@H](CC(C)C)C(=O)N[C@@H](CCCCN)C(=O)N[C@H](C(=O)N[C@@H](CC(C)C)C(=O)N[C@H](C(=O)N[C@H](C(=O)NCC(=O)N[C@@H](CC(C)C)C(=O)N1CCC[C@H]1C(=O)N[C@@H](C)C(=O)N[C@@H](CC(C)C)C(=O)N[C@H](C(=O)N[C@@H](CO)C(=O)N[C@@H](Cc1c[nH]c2ccccc12)C(=O)N[C@H](C(=O)N[C@@H](CCCCN)C(=O)N[C@@H](CCCNC(=N)N)C(=O)N[C@@H](CCCCN)C(=O)N[C@@H](CCCNC(=N)N)C(=O)N[C@@H](CCC(N)=O)C(=O)N[C@@H](CCC(N)=O)C(N)=O)[C@@H](C)CC)[C@@H](C)CC)[C@@H](C)O)[C@@H](C)O)C(C)C)C(C)C` [melittin]: the “Fluorescent emission of the lipid/PDA constructs (membrane perturbation)” value in test [2] (5 μM and 50 μM, FIG. 8 panels C, D) is given as “results in the characteristic fluorescent emission”. Moreover, in test [2] (5 μM versus 50 μM, FIG. 8 panels C, D), the “Dependence of fluorescent emission on dose” value is reported as “dose-dependent”. Further, the “Fluorescence from transformed red PDA” value in test [3] is given as “fluorescence spots”. For `CC(C)NCC(O)COc1cccc2ccccc12` (centres unmarked) [propranolol], the “Fluorescent emission associated with perturbation of the PDA-lipid constructs” value in test [4] is “characteristic fluorescent emission associated with perturbation of the PDA-lipid constructs embedded in the cell membrane is readily observed”. With `OC[C@H]1O[C@@](CO)(O[C@H]2O[C@H](CO)[C@@H](O)[C@H](O)[C@H]2O)[C@@H](O)[C@@H]1O` [sucrose], the “Fluorescent emission of the lipid/PDA constructs (membrane perturbation)” value in test [2] (1 M, 25° C., 5 to 15 minutes, FIG. 3) is on record as “fluorescent emission”.

For the origin of these results see US7855073B2, “Cells containing a nanopatch sensor in their membrane” (Ben-Gurion University of the Negev Research and Development …, priority 2003, dated 2010).
